Assay [1] relates to NMDA receptor/ionophor complex, allosteric modulatory (glycine) site. The note with it: literature; cited from earlier work.
Assay [2] has as its target T1, glycine site of the NMDA receptor complex (Rattus norvegicus, UniProt P35439).
T1 construct: thawed rat cerebral cortical membrane homogenate; from tissue; host or cells: rat cerebral cortex, membrane homogenate
As to the kind of experiment: [3H]-glycine binding (Test 1). The note with it: [3H]-glycine 10 nM, rat cerebral cortical membrane, 0° C., 10 min, pH 7.1. On the procedure:
The glycine site binding activity of these compounds of the present invention can be illustrated by determining their capability for displacing radioactively labelled glycine from the glycine site.
The displacement activity of the compounds may be shown by determining the IC50 value which represents the concentration (μM) which causes a displacement of 50% of the specific binding of [^3 H]-glycine.
1 ml of thawed rat cerebral cortical membrane homogenate in HEPES-Tris (5 mM) and MgCl2 (1 mM) pH 7.1 were incubated at 0° C. for 10 min. with 25 μl [^3 H]-glycine (10 nM final concentration) and the test compound and buffer. Non-specific binding was determined by incubating with D-serine (1 mM final concentration). The binding reaction was terminated by centrifugation at 15,000×g at 4° C. followed by washing of the pellet with three times 3 ml of ice-cold buffer. Bound radioactivity was measured by scintillation counting. IC50 was determined by Hill analysis of at least four concentrations of test compound.

For assay [3], the system named is NMDA stimulated [3H]-GABA release. Briefly: Inhibition of NMDA stimulated [3H]-GABA release from cultured mouse cerebral cortex interneurons (Test 3). The format is cell-based. The note with it: 3 μg/ml NMDA, 37° C. As to the method:
The NMDA antagonistic properties of the compounds is illustrated by determining their capability to antagonize NMDA stimulated [^3 H]-GABA release from cultured mouse cortex neurons. The NMDA antagonistic activity of the compounds may be shown by determining the IC50 value, which represents the concentration (μM) which inhibits 50% of NMDA induced [^3 H]-GABA release.
Release experiments are performed using the model described by Drejer et al. (Life Sci. 38, 2077 (1986)). To cerebral cortex interneurons cultured in petri dishes (30 mm) are added 100 μg/ml 3-vinyl-GABA one hour before the experiment in order to inhibit degradation of GABA in the neurons. 30 min. before the experiment 5 μCi [^3 H]-GABA is added to each culture and after this preloading period the cells are washed twice with HEPES buffered saline (HBS) containing 10 mM HEPES, 135 mM NaCl, 5 mM KCl, 0.6 mM MgSO4, 1.0 mM CaCl2 and 6 mM D-glucose; pH 7 and placed in a superfusion system. This system consists of a peristaltic pump continuously delivering thermostated 37° C. superfusion medium from a reservoir to the top of a slightly tilted petri dish. The cell monolayer at the bottom of the dish is covered with a piece of nylon mesh to facilitate dispersion of medium over the cell layer. The medium is continuously collected from the lower part of the dish and delivered to a fraction collector. Initially, the cells are superfused with HBS for 15 min. (flow rate 2 ml/min.). Then cells are stimulated for 30 sec. every 4 min. by changing the superfusion medium from HBS to a corresponding medium containing NMDA and antagonist according to the following scheme:
Stimulation no. 1:3 μg/ml NMDA
Stimulation no. 2:3 μg/ml NMDA+0.3 μg/ml antagonist
Stimulation no. 3:3 μg/ml NMDA+3.0 μg/ml antagonist
The release of [^3 H]-GABA in the presence of NMDA is corrected for the mean basal release before and after stimulation. The stimulated release in the presence of antagonist is expressed relative to the stimulated release by NMDA alone and the IC50 value is calculated.

Assay [4] has as its target T2, NMDA receptor glycine site (glycine enhanced [3H]-MK-801 binding) (Rattus norvegicus, UniProt P35439).
T2 construct: thawed and extensively washed rat cerebral membrane homogenate; from tissue; host or cells: rat cerebrum, extensively washed membrane homogenate
Briefly: Antagonism of glycine enhanced [3H]-MK-801 binding (Test 2). The note with it: Schild analysis; [3H]-MK-801 1 nM, glutamate 300 nM, rat cerebral membrane, 23° C., 60 min, pH 7.40. On the procedure: The glycine antagonism is measured by determining the Ki value which represents the dissociation constant (μM) of the receptor-antagonist complex.
1 ml of thawed and extensively washed rat cerebral membrane homogenate in HEPES-NaOH (20 mM) pH 7.40 were incubated at 23° C. for 60 min. with 25 μl [^3 H]-MK-801 (1 nM final concentration), 25 μl glutamate (300 nM final concentration), test compound in concentrations corresponding to 0, 0.5, 2 and 5 times the IC50 value from the [^3 H]-glycine binding assay (test 1) for each concentration of glycine (10; 100; 1,000; 10,000 and 100,000 nM final concentration). The binding reaction was terminated by adding 5 ml of ice-cold buffer followed by rapid filtration through Whatman GF/C glass fiber filters and 5 ml wash with ice-cold buffer. Bound radioactivity was measured by scintillation counting. Ki values were determined by Schild analysis of the data using
log(dosis ration-1)=log[Inhibitor]-log(Ki).

The next assay deals with NMDA receptor. The note with it: cited from earlier work.

The IC50 is the concentration needed to halve the response being measured. Low values mean greater potency in that assay, high ones weaker potency in that assay. In general, Ki refers to a measure of affinity in units of concentration, obtained from inhibition or displacement.

The structures appear in SMILES notation. Where only a bound is given, the exact number is not on record here.

`N[C@H](CO)C(=O)O` [D-serine]: the “agonist/antagonist activity at the glycine site” value (from here on “agonist/antagonist activity”) in assay [1] is listed as “strong agonist activity”.
`COc1ccc2c(c1)n(O)c(=O)c(=O)n2CC(=O)O` [Example 13, 1-Carboxymethyl-4-hydroxy-6-methoxyquinoxalin-2,3(1H,4H)-dione]: the results for the IC50 in assay [2] and in assay [3] were 8000 nM and more than 3750 nM, respectively.
In turn, `O=C(O)Cn1c(=O)c(=O)[nH]c2cc([N+](=O)[O-])ccc21` [Example 7, 1-Carboxymethyl-6-nitroquinoxaline-2,3(1H,4H)-dione] came in with an IC50 in assay [2] of 2000 nM.
For `Cc1cc2[nH]c(=O)c(=O)n(CC(=O)O)c2cc1C` [Example 5, 1-Carboxymethyl-6,7-dimethylquinoxaline-2,3(1H,4H)-dione], the results for the IC50 in assay [2] and in assay [3] were 554 nM and 509 nM, respectively. Further, the Ki in assay [4] worked out at 212 nM.
For `O=C1C[C@@H]2OCC=C3CN4CC[C@]56c7ccccc7N1[C@H]5[C@H]2[C@H]3C[C@H]46` [strychnine], in the assay with NMDA receptor (cultured neurons, literature), the “sensitivity of the glycine response to strychnine” value is “insensitive”.
For `NC1CCN(O)C1=O` (centres unmarked) [HA-966, 3-amino-1-hydroxy-2-pyrrolidone], the “agonist/antagonist activity” value in assay [1] is on record as “weak antagonists”.
`O=C(O)Cn1c(=O)c(=O)[nH]c2ccc([N+](=O)[O-])cc21` [Example 19, 1-Carboxymethyl-7-nitroquinoxaline-2,3(1H,4H)-dione]: the IC50 in assay [2] came to 7000 nM.
As for `O=C(O)C(c1ccccc1)n1c(=O)c(=O)[nH]c2ccccc21` (centres unmarked) [Example 10, 1-(1-Carboxy-1-phenylmethyl)quinoxaline-2,3(1H,4H)-dione], the IC50 in assay [2] was 8000 nM; in assay [3] it was 2620 nM.
As for `O=C(O)Cn1c(=O)c(=O)[nH]c2cc(Cl)c(Cl)cc21` [Example 1, 1-Carboxymethyl-6,7-dichloroquinoxaline-2,3(1H,4H)-dione], the IC50 worked out at 350 nM in assay [2] and 163 nM in assay [3]. Also, in assay [4], the Ki worked out at 162 nM.
In the case of `N[C@@H]1CONC1=O` [D-cycloserine], in assay [1], the “agonist/antagonist activity” value is on record as “partial agonists”.
In the case of `NCC(=O)O` [glycine], the “glycine site binding affinity” value in assay [1] is reported as “high affinity binding”. Further, the “effect on NMDA receptor agonist induced responses” value with NMDA receptor is recorded as “increase NMDA receptor agonist induced responses”.
Turning to `O=C(O)c1cc(O)c2ccc(Cl)cc2n1` [7-chlorokynurenate], the “agonist/antagonist activity” value in assay [1] was “quite strong, but non-selective antagonists of glycine at the glycine site”.
Take `CCCCC(C(=O)O)n1c(=O)c(=O)[nH]c2ccccc21` (centres unmarked) [Example 8, 1-((1-Carboxy)pentyl)-quinoxaline-2,3(1H,4H)-dione]: the figures for the IC50 in assay [2] and in assay [3] were 2200 nM and 1880 nM, respectively. Moreover, the Ki in assay [4] is 770 nM.
The corresponding values for `O=C(O)Cn1c(=O)c(=O)[nH]c2cc(Cl)ccc21` [Example 6, 1-Carboxymethyl-6-chloroquinoxaline-2,3(1H,4H)-dione] are 520 nM, 394 nM and 3400 nM.
The corresponding values for `CCCCCC(C(=O)O)n1c(=O)c(=O)[nH]c2cc(Br)ccc21` (centres unmarked) [Example 15, 1-((1-Carboxy)hexyl)-6-bromoquinoxaline-2,3(1H, 4H)-dione] are 587 nM, 2640 nM and 49 nM.
On to `CCCCC(C(=O)O)n1c(=O)c(=O)[nH]c2cc(Cl)c(Cl)cc21` (centres unmarked) [Example 16, 1-((1-carboxy)pentyl)-6,7-dichloroquinoxaline-2,3(1H,4H)-dione], for which the IC50 in assay [2] was found to be 409 nM. Further, the Ki in assay [4] turned out to be 100 nM.
In the case of `O=C(O)Cn1c(=O)c(=O)[nH]c2cc(Br)ccc21` [Example 3, 6-Bromo-1-carboxymethylquinoxaline-2,3(1H,4H)-dione], the IC50 is 544 nM in assay [2] and 505 nM in assay [3]. Also, the Ki in assay [4] amounted to 127 nM.
On to `N#Cc1cc2[nH]c(=O)c(=O)[nH]c2cc1[N+](=O)[O-]` [CNQX, 6-cyano-7-nitroquinoxaline-2,3-dione], for which, in assay [1], the “agonist/antagonist activity” value is on record as “weak antagonists”.
For the molecule `CC(C(=O)O)n1c(=O)c(=O)[nH]c2ccccc21` (centres unmarked) [Example 11, 1-((1-Carboxy)ethyl)quinoxaline-2,3(1H,4H)-dione], in assay [2], the IC50 was found to be 3000 nM. In addition, in assay [4], the Ki came out at 900 nM.
Consider `CCCC(C(=O)O)n1c(=O)c(=O)[nH]c2ccccc21` (centres unmarked) [Example 9, 1-((1-Carboxy)butyl)quinoxaline-2,3(1H,4H)-dione], for which the values for the IC50 in assay [2] and in assay [3] were 5000 nM and 2860 nM, respectively. Also, in assay [4], the Ki stood at 1900 nM.
In assay [2], `O=C(O)Cn1c(=O)c(=O)[nH]c2cc(Cl)cc(Cl)c21` [Example 22, 1-Carboxymethyl-6,8-dichloroquinoxaline-2,3(1H, 4H)-dione] returned an IC50 of 852 nM.
`O=C(O)Cn1c(=O)c(=O)[nH]c2cc(Br)c(Br)cc21` [Example 12, 1-Carboxymethyl-6,7-dibromoquinoxaline-2,3(1H,4H)-dione]: the IC50 in assay [2] worked out at 849 nM; in assay [3] it was 127 nM. Moreover, the Ki in assay [4] was 390 nM.
On to `O=C(O)Cn1c(=O)c(=O)[nH]c2cc(F)c(F)cc21` [Example 4, 1-Carboxymethyl-6,7-difluoroquinoxaline-2,3(1H,4H)-dione], for which the figures for the IC50 in assay [2] and in assay [3] were 500 nM and 328 nM, respectively. Besides, the Ki in assay [4] came to 118 nM.
As to `C[C@@H](N)C(=O)O` [D-alanine], the “agonist/antagonist activity” value in assay [1] is reported as “strong agonist activity”.

The values above are taken from patent publication US5166155A, “Quinoxaline-2,3-dione compounds and their preparation and use” (Novo Nordisk A/S, priority 1990, dated 1992).
